The text below walks through data of patent US20230117205A1, “B7-H4 ANTIBODY-DRUG CONJUGATES FOR THE TREATMENT OF CANCER” (SEAGEN INC., priority 2021, published 2023).

The subject of assay [1] is MDA-MB-468 tumor and PBMC co-cultures. The assay can be described thus: Tumor/PBMC co-culture assay. Particulars: tumor/immune cell co-cultures. It is filed as cell-based, human. How it is done: Tumor cells were transfected with Incucyte® Cytolight red lentivirus per manufacturer's instructions and stable polyclonal cell populations expressing mKate2 (red fluorescent protein, RFP) were generated under puromycin selection. Live-cell killing assays were performed by seeding RFP+ MDA-MB-468 tumor cells in 96-well flat bottom plates (Corning #3603) at a variety of densities (3,750-10,000 cells/well) and grown overnight. The following day, PBMCs isolated from healthy donors were added at 15:1 or 25:1 effector to target (E:T) ratios and cultures were treated with the indicated small molecule drugs or ADCs. To evaluate immune cell activation, supernatants were harvested between 120 and 144 hours post treatment and MIP-1β production was evaluated by Milliplex MAP Human cytokine/chemokine/growth factor panel A (12-plex) Immunology Multiple Assay (Millipore Sigma #HCYTA-60K-12C). […] Following the final wash, cell pellets were resuspended in 200 μL staining buffer and analyzed on an NXT Attune flow cytometer (ThermoFisher). Flow cytometry data were analyzed using FlowJo software and monocyte activation was quantified by measuring the MFI of CD86 staining on CD14+ monocytes within the RFP−/live/CD19−/CD3−/CD14+ gate.

Assay [2] relates to Ovarian carcinoma PDX models. In words: Ovarian carcinoma patient-derived xenograft models. It is filed as in vivo, mice. Particulars: 3 mg/kg q7dx3; for % TGI: vs untreated. The procedure: Tumor size and body weight were measured twice weekly, and the study was terminated when tumors in the control group reached 1500 mm^3 or up to Day 28, whichever occurred first, or maximum up to Day 60.
Specifically, Stock mice were bilaterally implanted with fragments from one of the Champions TumorGraft® models representing human HR^+ BC or ovarian cancer. After the tumors reached 1000-1500 mm^3, they were harvested, and the tumor fragments were implanted subcutaneously (s.c.) in the left flank of the female study mice. Each animal was implanted with a specific passage lot and documented. Tumor growth was monitored twice a week using digital calipers, and the tumor volume (TV) was calculated using the formula (0.52×[length×width^2]). When the TV reached approximately 150-300 mm^3, animals were matched by tumor size and assigned into control (untreated) or treatment groups (n=3 animals/group). Each animal in the treatment groups was dosed with 3 mg/kg of ADC every seven days for three total doses (q7dx3). Tumor size and body weight were measured twice weekly, and the study was terminated when tumors in the control group reached 1500 mm^3 or up to Day 28, whichever occurred first, or maximum up to Day 60.
Inhibition of tumor growth was determined by calculating the percent TGI on the day at which animals in the control group were terminated (100%×[1−(final MTV−initial MTV of a treated group)/(final MTV−initial MTV of the control group)]). Treatment started on Day 0.
Background: A xenograft is tissue or cells of one species grown in another, often human tumour cells in immunodeficient mice.

In assay [3] the test system is MDA-MB-468 xenograft tumors. The assay can be described thus: RNAseq of treated MDA-MB-468 xenograft tumors. The class given is in vivo, NSG mice. Particulars: single 3 mg/kg dose; compared to vehicle control. How it is done:
Specifically, female NSG mice were implanted with 1×10^6 MDA-MB-468 cells in 25% Matrigel H C subcutaneously. Once tumor volumes reached ˜250-300 mm^3, mice were randomized into treatment groups of 6 mice each and treated with a single 3 mg/kg dose of ADC or mAb, or vehicle control (20 mM Histidine buffer, pH 6.0) injected intraperitoneally (i.p.). Stock concentrations of ADC were diluted to desired concentration with 20 mM Histidine buffer, pH 6.0 or and stock concentration of mAb were diluted to desired concentration with 0.01% Tween20 in PBS. Twenty-four hours prior to dosing, each animal was treated with 10 mg/kg hIVIG. One week following treatment, tumors were harvested, cut in half, and processed for RNAseq (frozen at −80° C.) or formalin-fixed and paraffin-embedded for immunohistochemical (IHC) analysis.
For RNAseq, RNA was extracted from tumors and library preparation for […] sequencing was performed using PolyA selection. RNA was sequenced using the Illumina HiSeq platform 2×150 bp configuration. […] Adaptors were trimmed using cutadapt version 1.16, reads were aligned to a composite (GRCh38(h38)/GRCm38(mm10)) genome using STAR version 2.5.2. Transcripts and genes were quantitated via RSEM version 1.2.31. Quantitative and statistical differences were determined between groups of samples using DESeq2 version 1.28.1. […]

As for “SGN-B7H4V: ADC of fully human IgG1 anti-B7-H4 mAb conjugated to monomethyl auristatin E (MMAE) via a protease-cleavable valine-citrulline linker (vedotin)”, the “CD86 on CD14+ monocytes” value in assay [1] was “upregulation of the costimulatory molecule CD86”. The “release of MIP-1β/CCL4” value in assay [1] is recorded as “led to the release of the chemoattractant MIP-1β/CCL4”. Besides, the “% TGI” value was 110% in assay [2] (Ovarian_1, Day 48); 103% in assay [2] (Ovarian_2, Day 41); 84% in assay [2] (Ovarian_3, Day 53); −57% in assay [2] (Ovarian_4, Day 52); 83% in assay [2] (Ovarian_5, Day 36); −33% in assay [2] (Ovarian_6, Day 23). Besides, the “PDX models with tumor regression or tumor growth delay (e.g. TGI>50%)” value in assay [2] (ovarian carcinoma) is recorded as 4/6. Besides, the “upregulation of human transcripts encoding cytokines (CXCL10 and CXCL1)” value in assay [3] is listed as 2-3 fold.
